Measurements from PMC6544269, “Identification of inhibitors of an unconventional Trypanosoma brucei kinetochore kinase” (PLoS ONE, 2019).

T1: TbKKT19 (Trypanosoma brucei, UniProt Q382T9)
T1 construct: gene Tb11.01.4250; recombinant His-tagged, full-length TbKKT19
T1 sequence (Q382T9 1-484): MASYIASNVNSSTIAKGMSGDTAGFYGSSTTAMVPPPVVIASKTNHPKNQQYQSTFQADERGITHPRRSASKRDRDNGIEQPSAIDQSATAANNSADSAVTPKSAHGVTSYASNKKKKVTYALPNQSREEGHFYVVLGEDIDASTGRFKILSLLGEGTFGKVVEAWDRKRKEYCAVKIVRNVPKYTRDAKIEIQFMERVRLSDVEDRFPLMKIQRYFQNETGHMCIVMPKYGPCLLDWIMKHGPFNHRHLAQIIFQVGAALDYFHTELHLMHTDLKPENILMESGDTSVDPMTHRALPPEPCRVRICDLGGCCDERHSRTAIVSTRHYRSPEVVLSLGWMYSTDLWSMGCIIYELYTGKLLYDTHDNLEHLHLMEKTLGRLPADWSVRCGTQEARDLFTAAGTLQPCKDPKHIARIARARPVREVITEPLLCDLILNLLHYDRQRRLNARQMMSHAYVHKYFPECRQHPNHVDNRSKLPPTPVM

B1: TbKKT19 (Trypanosoma brucei brucei TREU927) (protein)
chain: T1 sequence (Q382T9 1-484)
notes: recombinant His-tagged, full-length TbKKT19

Experiments:
TbKKT19 [1] = target: T1, TbKKT19; assay: ADP Hunter Plus kinase assay, KKL peptide, […] ATP; potency shift at […] ATP; type: biochemical
TbKKT19 [2] = target: T1, TbKKT19; assay: ADP Hunter Plus kinase assay, 10-point IC50, with technology counterscreen; repurchased and reconfirmed; type: biochemical
purified protein = substrate: Nc1ncnc2c1ncn2[C@@H]1O[C@H](COP(=O)(O)OP(=O)(O)OP(=O)(O)O)[C@@H](O)[C@H]1O; assay: purified protein; type: biochemical, Trypanosoma brucei; conditions: ATP binding site

Molecule | IC50 (TbKKT19 [1]) [µM] | IC50 (TbKKT19 [2]) [µM] | also measured
COc1cc(O)c2c(c1)[C@H]1O[C@@H]1C[C@H](O)[C@H](O)C(=O)/C=C\C[C@H](C)OC2=O [hypothemycin] | 0.065 | – | –
CCN(Cc1ccc(/C=C2/C(=O)Nc3ccccc32)o1)S(C)(=O)=O [compound 1] | – | 18.9 | –
O=C(Nc1ccc2cn[nH]c2c1)c1c(Cl)cccc1Cl [compound 2] | – | 14.9 | –
CN[C@@H]1C[C@H]2O[C@@](C)([C@@H]1OC)n1c3ccccc3c3c4c(c5c6ccccc6n2c5c31)C(=O)NC4 [staurosporine] | 0.288 | – | –
B1 | – | – | Km (purified protein): 102 µM
